{"source": "patent US20120053130A1", "about": "“COMPOSITION FOR ENHANCING ABSORPTION OF A DRUG AND METHOD” (Bristol-Myers Squibb Company, priority 2010, published 2012)", "key": {"Calu-3 cells [1]": {"tested_on": "Calu-3 cells", "test": "DDAVP permeation across Calu-3 cells on Transwell filters", "assay_type": "in vitro ADME, human", "settings": "for DDAVP Permeability: Phosphatidylcholine (Lecithin) Treatment", "from_the_text": "(§1) Papp values are labeled on top of the bars.\n(§2) Inclusion of LPC further boosted the transport of DDAVP."}, "Calu-3 cells [2]": {"tested_on": "Calu-3 cells", "test": "TEER measurement (cell integrity and reversibility)", "assay_type": "cell-based, human", "settings": "for TEER after 2 hr (% initial): Phosphatidylcholine (Lecithin) Treatment", "from_the_text": "The asterisk (delete scatters with) (*) represent (delete marker present) those samples where TEER recovered to the original level within 12 hrs after washout of the treatment.\nTransepithelial electrical resistance (TEER) measures the integrity of the epithelial barrier. […] Return of the TEER values to initial levels indicates recovery to baseline barrier properties. TEER measurements were done in confluent highly resistant Calu-3 cells cultured in Transwell filters with handheld STX-2 electrodes connected to EVOM Voltohmmeter. […] After the removal of apical treatment, TEER recovered to the original values."}, "Calu-3 cells [3]": {"tested_on": "Calu-3 cells", "test": "Alamar Blue acute cytotoxicity assay", "assay_type": "cell-based, human", "from_the_text": "FIG. 2 depicts an Alamar Blue Assay—Black bar indicates the % of the cell survival after 2 hrs treatment of LPC at 0-0.25%; gray bar indicates the combination of LPC with 0.5% of C971P.\nThis assay is based on the ability of live cells to enzymatically reduce Alamar blue dye which indicates the relative percentage of cells that survive the exposure to the various treatments. Calu-3 cells exposed to buffer for 2 hr were used as the positive control with 100% cell survival."}, "[4]": {"test": "Intra-nasal DADLE absorption in rabbits", "assay_type": "in vivo, rabbit", "settings": "DADLE 1 mg/kg intra-nasal via syringe microsprayer", "from_the_text": "Intra-nasal delivery of the model pentapepdide DADLE in water, C971P, LPC or C971P/LPC formulation was studied in rabbits. […] The C971P/LPC formulation enhanced DADLE absorption by >50% compared to LPC alone."}, "[5]": {"test": "DDAVP permeation across Calu-3 cells on Transwell filters", "assay_type": "in vitro ADME, human", "settings": "human", "from_the_text": "as §1, §2"}}}
{"compound": "Phosphatidylcholine [Phosphatidylcholine (Lecithin)]", "values": [{"measurement": "DDAVP permeability enhancement and TEER drop, result in words", "setting": "Calu-3 cells [1]; Calu-3 cells, TEER 2 hr after exposure", "result": "failed to show any measurable enhancement or TEER drop"}, {"measurement": "DDAVP Permeability", "setting": "Calu-3 cells [1]; 1 mM", "result": "0.045 ± 0.003", "unit": "×10⁻⁶ cm/s"}, {"measurement": "DDAVP Permeability", "setting": "Calu-3 cells [1]; 2 mM", "result": "0.044 ± 0.003", "unit": "×10⁻⁶ cm/s"}, {"measurement": "DDAVP Permeability", "setting": "Calu-3 cells [1]; 5 mM", "result": "0.044 ± 0.004", "unit": "×10⁻⁶ cm/s"}, {"measurement": "TEER after 2 hr (% initial)", "setting": "Calu-3 cells [2]; 1 mM", "result": "No change"}, {"measurement": "TEER after 2 hr (% initial)", "setting": "Calu-3 cells [2]; 2 mM", "result": "No change"}, {"measurement": "TEER after 2 hr (% initial)", "setting": "Calu-3 cells [2]; 5 mM", "result": "No change"}]}
{"compound": "CCCCCCCCCC(=O)[O-].[Na+]", "note": "[sodium caprate]", "values": [{"measurement": "effect of Carbopol 971P on acute cytotoxicity of the enhancer", "setting": "Calu-3 cells [3]; Alamar Blue cytotoxicity assay in Calu-3 cells", "result": "failed to reduce the acute cytotoxicity"}]}
{"compound": "L-α-lysophosphatidylcholine [LPC]", "values": [{"measurement": "cell survival", "setting": "Calu-3 cells [3]; 0.05% LPC, 2 hr, without or with 0.5% C971P", "result": "About 82%"}, {"measurement": "cell survival", "setting": "Calu-3 cells [3]; 0.1% LPC, 2 hr, without or with 0.5% C971P", "result": 41, "unit": "%"}, {"measurement": "cell survival, result in words", "setting": "Calu-3 cells [3]; LPC 0-0.25%, 2 hr, without or with 0.5% C971P", "result": "dose-dependent reduction in survival"}, {"measurement": "change in TEER on treatment", "setting": "Calu-3 cells [2]; 2 hours of treatment", "result": "dramatic drop in TEER"}, {"measurement": "DADLE exposure relative to water control", "setting": "[4]", "result": 2.4, "unit": "times"}]}
{"compound": "NC(=O)CC[C@@H]1NC(=O)[C@H](Cc2ccccc2)NC(=O)[C@H](Cc2ccc(O)cc2)NC(=O)CCSSC[C@@H](C(=O)N2CCC[C@H]2C(=O)N[C@H](CCCN=C(N)N)C(=O)NCC(N)=O)NC(=O)[C@H](CC(N)=O)NC1=O", "note": "[DDAVP, 1 deamino-8-D-arginin-vasopressin]", "values": [{"measurement": "Papp A→B", "setting": "[5]", "result": "0.04 ± 0.003", "unit": "×10⁻⁶ cm/s"}]}
